The subject of experiment [1] is HT-29. Kind of experiment: Antiproliferative activity against human HT-29 cells assessed as cell growth inhibition incubated for 72 hrs under normoxia condition by SRB assay. Type of experiment: functional, cell-based. The note with it: HT-29, 72 h. In general terms: In SRB staining, fixed cells bind dye roughly in proportion to their protein.
Experiment [2] relates to A549. Kind of experiment: cells. The note with it: Homo sapiens.
Description: Antiproliferative activity against human A549 cells assessed as cell growth inhibition by MTT assay
Experiment [3] relates to HT-29. Kind of experiment: Antiproliferative activity against human HT-29 cells assessed as cell growth inhibition incubated for 72 hrs under hypoxia condition by SRB assay. Type of experiment: functional, cell-based. The following applies: HT-29, 72 h.
Experiment [4] has as its system A549. Kind of experiment: Antiproliferative activity against human A549 cells assessed as cell growth inhibition incubated for 72 hrs under normoxia condition by SRB assay. The class given is functional, cell-based. The following applies: A549, 72 h.
The subject of experiment [5] is A549. Kind of experiment: Antiproliferative activity against human A549 cells assessed as cell growth inhibition incubated for 72 hrs under hypoxia condition by SRB assay. The class given is functional, cell-based. The note with it: A549, 72 h.
Experiment [6] is described as follows: cells. Type of experiment: functional, cell-based. The following applies: Homo sapiens, HBE, 72 h.
Description: Antiproliferative activity against human HBE cells assessed as cell growth inhibition incubated for 72 hrs by MTT assay
Experiment [7] concerns A549. Kind of experiment: cells. The class given is functional, cell-based. The note with it: Homo sapiens, A549, 72 h.
Description: Antiproliferative activity against human A549 cells assessed as cell growth inhibition incubated for 72 hrs by MTT assay
For experiment [8], the system named is A-431. Kind of experiment: cells. Type of experiment: functional, cell-based. The following applies: Homo sapiens, A-431, 72 h.
Description: Antiproliferative activity against human A-431 cells assessed as cell growth inhibition incubated for 72 hrs by MTT assay
In experiment [9] the target is Epidermal growth factor receptor (Homo sapiens, UniProt P00533, L858R/T790M).
Epidermal growth factor receptor (Homo sapiens, UniProt P00533, L858R/T790M), sequence (P00533 25-1210 T790M/L858R limits assumed): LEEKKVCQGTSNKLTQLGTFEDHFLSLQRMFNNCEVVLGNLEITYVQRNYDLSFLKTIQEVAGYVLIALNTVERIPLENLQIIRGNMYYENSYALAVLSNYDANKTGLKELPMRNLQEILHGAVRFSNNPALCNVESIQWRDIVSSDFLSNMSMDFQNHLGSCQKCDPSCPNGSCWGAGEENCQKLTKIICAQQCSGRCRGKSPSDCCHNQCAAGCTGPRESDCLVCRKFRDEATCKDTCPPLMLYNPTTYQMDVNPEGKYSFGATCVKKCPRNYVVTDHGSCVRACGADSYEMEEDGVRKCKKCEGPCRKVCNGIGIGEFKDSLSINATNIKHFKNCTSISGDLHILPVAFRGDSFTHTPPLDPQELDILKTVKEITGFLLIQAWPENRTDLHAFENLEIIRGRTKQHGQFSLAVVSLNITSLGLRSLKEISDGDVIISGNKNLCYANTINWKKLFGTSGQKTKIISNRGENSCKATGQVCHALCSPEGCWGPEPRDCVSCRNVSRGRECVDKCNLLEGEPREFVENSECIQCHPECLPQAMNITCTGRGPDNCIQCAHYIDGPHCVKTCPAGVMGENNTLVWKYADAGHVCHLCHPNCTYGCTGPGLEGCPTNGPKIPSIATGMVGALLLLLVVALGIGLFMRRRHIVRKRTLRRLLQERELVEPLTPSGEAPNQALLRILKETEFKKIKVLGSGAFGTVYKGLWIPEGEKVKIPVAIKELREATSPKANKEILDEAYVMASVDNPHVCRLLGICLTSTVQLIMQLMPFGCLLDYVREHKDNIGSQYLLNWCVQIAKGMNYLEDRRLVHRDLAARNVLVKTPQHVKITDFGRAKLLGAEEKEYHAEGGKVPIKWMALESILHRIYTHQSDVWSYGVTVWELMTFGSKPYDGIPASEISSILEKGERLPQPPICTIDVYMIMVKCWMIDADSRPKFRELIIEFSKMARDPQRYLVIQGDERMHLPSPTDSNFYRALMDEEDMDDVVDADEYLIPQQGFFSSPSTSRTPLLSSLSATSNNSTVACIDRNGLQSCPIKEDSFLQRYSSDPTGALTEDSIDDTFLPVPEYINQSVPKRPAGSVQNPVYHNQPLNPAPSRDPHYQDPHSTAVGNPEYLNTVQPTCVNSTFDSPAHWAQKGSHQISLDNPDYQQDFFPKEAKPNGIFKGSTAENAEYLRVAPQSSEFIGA
The test system of experiment [10] is HCC827. Kind of experiment: cells. The note with it: Homo sapiens, HCC827, 72 h. Type of experiment: functional, cell-based.
Description: Antiproliferative activity against human HCC827 cells assessed as cell growth inhibition incubated for 72 hrs by MTT assay
The test system of experiment [11] is NCI-H1975. Kind of experiment: Antiproliferative activity against human NCI-H1975 cells assessed as cell growth inhibition incubated for 72 hrs by MTT assay. The class given is functional, cell-based. The note with it: NCI-H1975, 72 h. On the technique in general: Tetrazolium dyes change colour on reduction, which living cells bring about.
Experiment [12] deals with T1, Epidermal growth factor receptor (Homo sapiens, UniProt P00533).
T1 sequence (P00533 whole entry): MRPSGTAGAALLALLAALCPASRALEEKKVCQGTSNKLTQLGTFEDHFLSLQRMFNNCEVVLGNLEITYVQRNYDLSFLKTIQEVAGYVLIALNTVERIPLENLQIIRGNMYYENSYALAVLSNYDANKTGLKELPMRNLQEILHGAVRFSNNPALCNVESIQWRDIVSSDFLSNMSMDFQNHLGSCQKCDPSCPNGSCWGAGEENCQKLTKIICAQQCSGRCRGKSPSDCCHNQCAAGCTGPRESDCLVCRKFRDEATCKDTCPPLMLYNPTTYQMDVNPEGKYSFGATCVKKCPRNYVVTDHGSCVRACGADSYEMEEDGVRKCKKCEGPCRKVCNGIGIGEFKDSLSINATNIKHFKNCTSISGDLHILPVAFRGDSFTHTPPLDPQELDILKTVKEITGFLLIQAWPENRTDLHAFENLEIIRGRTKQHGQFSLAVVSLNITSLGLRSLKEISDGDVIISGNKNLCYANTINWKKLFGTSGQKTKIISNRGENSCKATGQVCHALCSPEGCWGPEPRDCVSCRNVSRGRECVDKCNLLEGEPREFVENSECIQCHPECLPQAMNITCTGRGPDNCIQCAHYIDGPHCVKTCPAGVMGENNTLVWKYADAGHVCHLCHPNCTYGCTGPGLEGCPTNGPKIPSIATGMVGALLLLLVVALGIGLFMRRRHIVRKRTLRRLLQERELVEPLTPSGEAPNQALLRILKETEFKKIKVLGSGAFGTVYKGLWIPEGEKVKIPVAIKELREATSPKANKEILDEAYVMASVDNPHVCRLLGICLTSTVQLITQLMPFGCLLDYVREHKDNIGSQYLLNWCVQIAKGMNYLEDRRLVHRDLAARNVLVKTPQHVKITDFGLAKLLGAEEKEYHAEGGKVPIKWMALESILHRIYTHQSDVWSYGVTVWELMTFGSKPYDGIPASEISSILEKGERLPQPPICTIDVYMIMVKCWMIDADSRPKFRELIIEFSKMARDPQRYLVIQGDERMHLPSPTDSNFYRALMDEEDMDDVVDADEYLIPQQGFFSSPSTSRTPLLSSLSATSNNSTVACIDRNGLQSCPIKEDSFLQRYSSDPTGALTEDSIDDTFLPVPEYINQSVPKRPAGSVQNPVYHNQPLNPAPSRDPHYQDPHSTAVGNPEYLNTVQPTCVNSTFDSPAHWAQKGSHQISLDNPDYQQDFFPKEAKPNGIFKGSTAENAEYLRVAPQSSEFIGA
Experiment [13] relates to A-431. Kind of experiment: cells. The class given is functional, cell-based. The following applies: Homo sapiens, A-431, 48 h.
Description: Antiproliferative activity against human A-431 cells assessed as cell growth inhibition incubated for 48 hrs by MTT assay
Experiment [14] relates to MDA-MB-231. Kind of experiment: Antiproliferative activity against human MDA-MB-231 cells assessed as cell growth inhibition incubated for 48 hrs by MTT assay. The class given is functional, cell-based. The note with it: MDA-MB-231, 48 h.
Experiment [15] deals with A549. Kind of experiment: cells. Type of experiment: functional, cell-based. The note with it: Homo sapiens, A549, 48 h.
Description: Antiproliferative activity against human A549 cells assessed as cell growth inhibition incubated for 48 hrs by MTT assay
Experiment [16] relates to MCF7. Kind of experiment: Antiproliferative activity against human MCF7 cells assessed as cell growth inhibition incubated for 72 hrs by MTT assay. The class given is functional, cell-based. The note with it: MCF7, 72 h.
The test system of experiment [17] is MRC5. Kind of experiment: Antiproliferative activity against human MRC5 cells assessed as cell growth inhibition incubated for 72 hrs by MTT assay. The class given is functional, cell-based. The following applies: MRC5, 72 h.
Experiment [18] addresses T1, Epidermal growth factor receptor. The source holds these as a separate data set.
In experiment [19] the target is T2, Receptor tyrosine-protein kinase erbB-2 (Homo sapiens, UniProt P04626). Kind of experiment: Inhibition of human HER2.
T2 sequence (P04626 whole entry): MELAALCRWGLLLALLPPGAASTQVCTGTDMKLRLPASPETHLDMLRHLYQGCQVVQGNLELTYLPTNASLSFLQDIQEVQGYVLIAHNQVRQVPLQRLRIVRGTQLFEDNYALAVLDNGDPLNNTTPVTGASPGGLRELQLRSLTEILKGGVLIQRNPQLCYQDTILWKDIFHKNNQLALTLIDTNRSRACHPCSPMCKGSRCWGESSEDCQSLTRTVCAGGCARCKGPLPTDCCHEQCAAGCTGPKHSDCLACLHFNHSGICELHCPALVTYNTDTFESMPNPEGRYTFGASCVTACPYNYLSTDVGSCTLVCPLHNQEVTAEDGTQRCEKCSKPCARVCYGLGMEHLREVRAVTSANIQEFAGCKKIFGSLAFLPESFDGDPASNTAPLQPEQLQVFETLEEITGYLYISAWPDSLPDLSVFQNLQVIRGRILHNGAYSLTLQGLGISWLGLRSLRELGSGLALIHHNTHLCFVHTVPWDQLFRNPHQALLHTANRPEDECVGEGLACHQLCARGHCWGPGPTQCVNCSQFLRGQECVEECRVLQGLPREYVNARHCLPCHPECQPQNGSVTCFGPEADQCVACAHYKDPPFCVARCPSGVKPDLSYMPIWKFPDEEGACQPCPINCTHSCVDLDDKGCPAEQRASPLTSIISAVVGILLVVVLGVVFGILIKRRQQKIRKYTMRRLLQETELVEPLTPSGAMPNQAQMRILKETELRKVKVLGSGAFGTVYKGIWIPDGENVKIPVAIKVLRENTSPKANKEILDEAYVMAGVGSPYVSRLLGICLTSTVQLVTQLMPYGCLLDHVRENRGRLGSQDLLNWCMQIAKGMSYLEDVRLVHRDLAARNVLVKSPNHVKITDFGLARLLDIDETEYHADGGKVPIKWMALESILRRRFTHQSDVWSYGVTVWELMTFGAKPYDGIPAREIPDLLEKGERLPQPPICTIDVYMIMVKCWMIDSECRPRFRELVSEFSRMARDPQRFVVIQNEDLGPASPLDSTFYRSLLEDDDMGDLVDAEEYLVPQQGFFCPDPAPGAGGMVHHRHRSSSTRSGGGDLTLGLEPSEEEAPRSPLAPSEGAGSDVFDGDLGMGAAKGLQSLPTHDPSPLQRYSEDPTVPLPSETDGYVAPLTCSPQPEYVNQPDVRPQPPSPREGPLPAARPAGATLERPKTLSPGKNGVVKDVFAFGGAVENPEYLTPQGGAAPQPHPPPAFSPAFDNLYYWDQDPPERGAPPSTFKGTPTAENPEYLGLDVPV
The test system of experiment [20] is HT-29. Kind of experiment: Antiproliferative activity against human HT-29 cells assessed as cell growth inhibition incubated for 72 hrs by MTT assay. Type of experiment: functional, cell-based. The note with it: Homo sapiens, HT-29, 72 h.
For experiment [21], the system named is K562. Kind of experiment: Antiproliferative activity against human K562 cells assessed as cell growth inhibition incubated for 72 hrs by MTT assay. The note with it: K562, 72 h. The class given is functional, cell-based.
Experiment [22] has as its system HL-60. Kind of experiment: Antiproliferative activity against human HL-60 cells assessed as cell growth inhibition incubated for 72 hrs by MTT assay. The class given is functional, cell-based.
In experiment [23] the target is Vascular endothelial growth factor receptor 2 (Homo sapiens, UniProt P35968).
Vascular endothelial growth factor receptor 2, sequence (P35968 whole entry): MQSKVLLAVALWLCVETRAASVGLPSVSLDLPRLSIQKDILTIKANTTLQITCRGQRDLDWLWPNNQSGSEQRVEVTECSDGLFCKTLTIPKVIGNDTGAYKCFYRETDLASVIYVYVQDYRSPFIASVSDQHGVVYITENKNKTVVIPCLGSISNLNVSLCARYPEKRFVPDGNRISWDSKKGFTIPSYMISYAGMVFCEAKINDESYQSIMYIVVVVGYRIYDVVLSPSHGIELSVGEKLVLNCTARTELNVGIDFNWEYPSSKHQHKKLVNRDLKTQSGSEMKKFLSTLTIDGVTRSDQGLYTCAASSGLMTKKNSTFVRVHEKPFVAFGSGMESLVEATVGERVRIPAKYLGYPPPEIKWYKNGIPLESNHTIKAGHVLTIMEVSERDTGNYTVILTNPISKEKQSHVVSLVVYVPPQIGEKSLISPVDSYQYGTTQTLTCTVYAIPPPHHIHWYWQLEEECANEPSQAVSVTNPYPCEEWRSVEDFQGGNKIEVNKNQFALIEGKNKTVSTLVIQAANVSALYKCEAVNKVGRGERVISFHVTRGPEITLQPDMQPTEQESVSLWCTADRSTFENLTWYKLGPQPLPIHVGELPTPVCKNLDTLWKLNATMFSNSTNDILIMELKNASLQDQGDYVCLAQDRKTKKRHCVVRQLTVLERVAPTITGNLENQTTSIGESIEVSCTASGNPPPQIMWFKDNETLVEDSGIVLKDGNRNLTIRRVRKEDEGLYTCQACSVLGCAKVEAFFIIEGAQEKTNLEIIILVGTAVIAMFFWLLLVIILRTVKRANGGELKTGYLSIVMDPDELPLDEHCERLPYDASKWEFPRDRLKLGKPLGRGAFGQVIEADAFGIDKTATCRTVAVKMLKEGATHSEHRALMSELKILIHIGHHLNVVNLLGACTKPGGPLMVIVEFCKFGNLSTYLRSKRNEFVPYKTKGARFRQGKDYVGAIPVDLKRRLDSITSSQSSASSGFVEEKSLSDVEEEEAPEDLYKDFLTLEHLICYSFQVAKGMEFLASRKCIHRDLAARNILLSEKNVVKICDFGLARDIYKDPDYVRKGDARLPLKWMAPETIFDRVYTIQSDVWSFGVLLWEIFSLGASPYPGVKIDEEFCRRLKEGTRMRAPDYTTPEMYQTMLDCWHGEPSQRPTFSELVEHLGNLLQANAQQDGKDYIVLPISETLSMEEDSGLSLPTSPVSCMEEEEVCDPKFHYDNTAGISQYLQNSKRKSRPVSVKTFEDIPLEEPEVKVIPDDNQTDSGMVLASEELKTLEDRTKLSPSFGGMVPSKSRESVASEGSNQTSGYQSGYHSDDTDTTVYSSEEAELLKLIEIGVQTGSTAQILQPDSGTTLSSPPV
Description: Inhibition of VEGFR2 (unknown origin)
Experiment [24] addresses T1, Epidermal growth factor receptor. Kind of experiment: Inhibition of human EGFR incubated for 1 hrs in presence of ATP by ELISA assay. A general note: ELISA stands for enzyme-linked immunosorbent assay.
For experiment [25], the system named is A549. Kind of experiment: Anticancer activity against human A549 cells assessed as cell growth inhibition incubated for 24 hrs by MTT assay. The following applies: A549, 24 h. Type of experiment: functional, cell-based.
Experiment [26] concerns the target T2, Receptor tyrosine-protein kinase erbB-2.
For experiment [27], the system named is A549. Kind of experiment: Induction of apoptosis in human A549 cells assessed as late apoptotic cells measured after 48 hrs by Annexin V-FITC/ Propidium iodide staining based flow cytometry relative to control. Type of experiment: functional.
For experiment [28], the system named is SW480. Kind of experiment: Antiproliferative activity against human SW480 cells assessed as cell growth inhibition by MTT assay. Type of experiment: functional, cell-based.
The subject of experiment [29] is NCI-H1975. Kind of experiment: Antiproliferative activity against human NCI-H1975 cells assessed as cell growth inhibition by MTT assay. Type of experiment: functional, cell-based.
For experiment [30], the system named is A-431. Kind of experiment: Antiproliferative activity against human A-431 cells assessed as cell growth inhibition by MTT assay. Type of experiment: functional, cell-based.
For experiment [31], the target named is T2, Receptor tyrosine-protein kinase erbB-2. Kind of experiment: Inhibition of HER2 (unknown origin) incubated for 1 hrs by ELISA assay.
For experiment [32], the system named is MDA-MB-231. Kind of experiment: Cytotoxicity against human MDA-MB-231 assessed as radio sensitizing effect incubated for 24 hrs in presence of gamma irradiation by MTT assay. The class given is functional.
The target in experiment [33] is T1, Epidermal growth factor receptor. Kind of experiment: Inhibition of EGFR (unknown origin) incubated for 1 hrs by ELISA assay.
Experiment [34] relates to MDA-MB-231. Kind of experiment: Anticancer activity against human MDA-MB-231 cells assessed as cell growth inhibition incubated for 24 hrs by MTT assay. The class given is functional, cell-based. The following applies: MDA-MB-231, 24 h.

“And” between values parts separate entries of the source, which are not always exact repeats. Equal values may be shown once.

For orientation: IC50 means the concentration that gives 50% inhibition.

Regarding `CS(=O)(=O)CCNCc1ccc(-c2ccc3ncnc(Nc4ccc(OCc5cccc(F)c5)c(Cl)c4)c3c2)o1` [LAPATINIB], the IC50 amounted to 6.81 µM in experiment [1]; 14.9 µM in [2]; 8.85 µM in experiment [3]; 11.3 µM in experiment [4]; 13.3 µM in experiment [5].

As to `C=CC(=O)Nc1ccccc1Nc1ncnc2cc(OC)c(OCCN3CCOCC3)cc12`, the IC50 in experiment [6] was 34 µM; in experiment [7], 32.4 µM; in [8], 13.5 µM; in experiment [9], 4.3 nM; in experiment [10] it was 650 nM; in experiment [11], 8.7 µM.

As for `CCCN(c1ccc(F)c(Cl)c1)c1ncnc2cc(OC)c(OCCCN3CCOCC3)cc12`, the IC50 in experiment [12] came out at 21.4 nM; in [13], 1680 nM; in experiment [14], 10.2 µM; in [15] it was 10.9 µM.

`NS(=O)(=O)c1ccc(CCn2c(SCC(=O)Nc3ccc(Cl)cc3)nc3ccccc3c2=O)cc1`: the IC50 in experiment [16] was found to be 1040 nM; in [17], 3.77 µM; in experiment [18], 200 nM; in experiment [19], 170 nM; in experiment [20], 1430 nM; in experiment [21], 2030 nM. Also, the IC50 is 410 nM and 2030 nM in [22]; 390 nM in experiment [23].

Consider `COc1cc2ncnc(Nc3ccc(OCCn4ccnc4[N+](=O)[O-])c(Cl)c3)c2cc1OCCCN1CCOCC1`, for which the IC50 amounted to 2.46 µM in experiment [1]; 120 nM in experiment [18]; 1.35 µM in experiment [3]; 1.59 µM in experiment [4]; 1.09 µM in experiment [5].

On to `Cc1ccccc1NC(=O)CSc1nc2cc3ccccc3cc2c(=O)n1-c1ccc(S(N)(=O)=O)cc1`, for which the IC50 in experiment [24] worked out at 12 nM; in experiment [25] it was 181 nM; in experiment [26] it was 21 nM.

With `CN(C)C/C=C/C(=O)Nc1cc2c(Nc3ccc(F)c(Cl)c3)ncnc2cc1O[C@H]1CCOC1` [AFATINIB], the Activity in [27] came to 13.53%.

In the case of `CCN(CC)CCNCc1ccc(-c2ccc3ncnc(Nc4ccc(OCc5cccc(F)c5)c(Cl)c4)c3c2)o1`, the IC50 in experiment [28] amounted to 6.67 µM; in experiment [29], 9.79 µM; in experiment [30], 2210 nM; in experiment [2], 5.46 µM.

Consider `CN1C(=O)c2ccc(NC(=O)CSc3nc4cc5ccccc5cc4c(=O)n3-c3ccc(S(N)(=O)=O)cc3)cc2C1=O`, for which the results for the IC50 in experiment [31], in [33] and in experiment [34] were 1320 nM, 640 nM and 500 nM, respectively. The Activity in experiment [32] was found to be 0.18 µM.

Consider `CN(C)C/C=C/C(=O)Nc1cc2c(N3CCc4ccccc43)ncnc2cc1O[C@@H]1CCOC1`, for which, in experiment [27], the Activity is 14.59%.

For the compound `Cc1ccc(NC(=O)CSc2nc3cc4ccccc4cc3c(=O)n2-c2ccc(S(N)(=O)=O)cc2)cc1`, the figures for the IC50 in experiment [24], in [25] and in [26] were 9 nM, 105 nM and 21 nM, respectively.
